Measured values published in ChEMBL document CHEMBL1138331, “Potent antimalarial activity of 2-aminopyridinium salts, amidines, and guanidines” (J Med Chem, 2007).

Key:
Plasmodium falciparum = assay: microbe, parasite or virus in culture; conditions: Nigerian, 48 h
Description: Antimalarial activity against Plasmodium falciparum Nigerian in human erythrocytes after 48 hrs

Description for physchem: Dissociation constant, pKa by potentiometric titration

Row | SMILES | pKa (physchem) | IC50 (Plasmodium falciparum) [nM]
1 | CCOC(=N)CCCCCCCCCCCCC(=N)OCC | 7.6 | 52000
2 | Nc1ccc(Cl)c[n+]1CCCCCCCCCCCC[n+]1cc(Cl)ccc1N | 12.8 | 1.4
3 | N=c1n(CCCCCCCCCCCCn2c(=N)n(Cc3ccccc3)c3ccccc32)c2ccccc2n1Cc1ccccc1 | 9.4 | 450
4 | CCN(CC)CCCCCCCCCCCCN(CC)CC |  | 540
5 | CCN(CC)CCCCCCCCCCCCCCCCN(CC)CC |  | 110
6 | C(CCCCCCCCN1CCCC1)CCCCCCCN1CCCC1 |  | 110
7 | OCC1CCCN1CCCCCCCCCCCCCCCCN1CCCC1CO (stereo unspecified) |  | 160
8 | C[N+]1(CCCCCCCCCCCCCCCC[N+]2(C)CCCC2CO)CCCC1CO (stereo unspecified) |  | 1.5
9 | CC[N+](CC)(CC)CCOCCCCCCCCCCCCOCC[N+](CC)(CC)CC |  | 3.3
10 | CCCCCCCCCCCC[n+]1ccc(C)cc1N |  | 1550
11 | Nc1ccc(-c2ccccc2)c[n+]1CCCc1ccc(CCC[n+]2cc(-c3ccccc3)ccc2N)cc1 | 12.8 | 13
12 | Cc1cc[n+](CCCCCCCC[n+]2ccc(C)cc2N)c(N)c1 |  | 7.2
13 | Cc1cc[n+](CCCCCCCCCCCC[n+]2ccc(C)cc2N)c(N)c1 | 13.5 | 0.5
14 | Cc1ccc[n+](CCCCCCCCCCCC[n+]2cccc(C)c2N)c1N | 13.3 | 1.8
15 | N=c1sc2ccccc2n1CCCCCCCCCCCCn1c(=N)sc2ccccc21 |  | 4000
16 | Cc1cc[n+](CCCCCCCCCCCCCCCC[n+]2ccc(C)cc2N)c(N)c1 | 13.6 | 3.8
17 | Cn1c(=N)n(CCCCCCCCCCCCn2c(=N)n(C)c3ccccc32)c2ccccc21 | 11.9 | 65
18 | Cc1ccc(N)[n+](CCCCCCCCCCCC[n+]2cc(C)ccc2N)c1 | 13 | 0.5
19 | FC(F)(F)c1ccc(OCC2CCCN2CCCCCCCCCCCCCCCCN2CCCC2COc2ccc(C(F)(F)F)cc2)cc1 (stereo unspecified) |  | 5400
20 | C[N+]1(CCCCCCCCCCCCCCCC[N+]2(C)CCCC2COc2ccc(C(F)(F)F)cc2)CCCC1COc1ccc(C(F)(F)F)cc1 (stereo unspecified) |  | 29

Row | SMILES | pKa (physchem) | IC50 (Plasmodium falciparum) [nM]
21 | c1c[nH]c(CCCCCCCCCCCCc2ncc[nH]2)n1 | 9.8 | 1650
22 | c1ccc2[nH]c(CCCCCCCCCCCCc3nc4ccccc4[nH]3)nc2c1 | 9 | 1800
23 | c1cn(CCCCCCCCCCCCn2ccnc2)cn1 |  | 2000
24 | C(CCCCCCNC1=NCCC1)CCCCCNC1=NCCC1 | 12.1 | 3.8
25 | C(CCCCCCNC1=NCCCC1)CCCCCNC1=NCCCC1 | 12.7 | 3
26 | C(CCCCCCNC1=NCCCCC1)CCCCCNC1=NCCCCC1 |  | 2.2
27 | CC(=N)NCCCCCCCCCCCCNC(C)=N | 12.6 | 2
28 | CC1CN=C(CCCCCCCCCCCCC2=NCC(C)N2)N1 (stereo unspecified) |  | 1
29 | CC1(C)CN=C(CCCCCCCCCCCCC2=NCC(C)(C)N2)N1 |  | 1
30 | C(CCCCCCC1=NC2CCCCC2N1)CCCCCC1=NC2CCCCC2N1 (stereo unspecified) |  | 3
31 | C(CCCCCCN/C(=N\C1CCCCC1)NC1CCCCC1)CCCCCN/C(=N\C1CCCCC1)NC1CCCCC1 |  | 21
32 | N=C(N)CCCCCCCCCCCCCCCCC(=N)N | 13.2 | 100
33 | CN1CCN=C1CCCCCCCCCCCCC1=NCCN1C | 11 | 43
34 | CN(C)C(=N)CCCCCCCCCCCCC(=N)N(C)C | 12.8 | 6.3
35 | C(CCCCCCC1=NCCCN1)CCCCCC1=NCCCN1 | 13.1 | 2.3
36 | N=C(CCCCCCCCCCCCC(=N)N1CCCC1)N1CCCC1 | 13.2 | 0.8
37 | N=C(CCCCCCCCCCCCC(=N)N1CCCCC1)N1CCCCC1 | 12.6 | 4.9
38 | Nc1cc(-c2ccccc2)cc[n+]1CCCc1ccc(CCC[n+]2ccc(-c3ccccc3)cc2N)cc1 | 12.6 | 4.5
39 | N=C1CCCN1CCCCCCCCCCCCN1CCCC1=N |  | 4
40 | CCN(CC)CCOCCCCCCCCCCCCOCCN(CC)CC |  | 120

Row | SMILES | pKa (physchem) | IC50 (Plasmodium falciparum) [nM]
41 | Cc1cc[n+](CCCc2ccc(CCC[n+]3ccc(C)cc3N)cc2)c(N)c1 | 12.6 | 2.9
42 | C(CCCCCCC1=NCCN1)CCCCCC1=NCCN1 | 13 | 2
43 | Cc1nccn1CCCCCCCCCCCCn1ccnc1C |  | 270
44 | N=C(N)NCCCCCCCCCCCCNC(=N)N |  | 0.35
45 | C(CCCCCCNC1=NCCCN1)CCCCCNC1=NCCCN1 |  | 0.5
46 | N=c1sccn1CCCCCCCCCCCCn1ccsc1=N | 10.1 | 800
47 | CC1(C)CN=C(NCCCCCCCCCCCCNC2=NCCCN2)NC1 |  | 0.6
48 | CN(C)/C(=N\C#N)NCCCCCCCCCCCCN/C(=N\C#N)N(C)C |  | 8500
49 | N=c1c2ccccc2ccn1CCCCCCCCCCCCn1ccc2ccccc2c1=N | 11.1 | 260
50 | Cc1ccc(-c2nn(CCCCCCCCCCCCn3nc(-c4ccc(C)cc4)sc3=N)c(=N)s2)cc1 | 8.1 | 5600
51 | N=c1ncc(-c2ccccc2)cn1CCCCCCCCCCCCn1cc(-c2ccccc2)cnc1=N | 11.3 | 12.3
52 | N=c1ncccn1CCCCCCCCCCCCn1cccnc1=N | 11.7 | 145
53 | N=c1sc(-c2cccs2)nn1CCCCCCCCCCCCn1nc(-c2cccs2)sc1=N | 7.8 | 8150
54 | C(CCCCCCNC1=NCCN1)CCCCCNC1=NCCN1 | 13.5 | 1.7
55 | CN(C)C(=N)NCCCCCCCCCCCCNC(=N)N(C)C | 14.1 | 1.6
56 | N=c1sc(-c2cccc(Cl)c2)nn1CCCCCCCCCCCCn1nc(-c2cccc(Cl)c2)sc1=N | 7.7 | 18500
57 | N=c1cc2ccc3ccccc3c2nn1CCCCCCCCCCCCn1nc2c(ccc3ccccc32)cc1=N | 11.7 | 50
58 | N=c1sc(-c2ccccc2)nn1CCCCCCCCCCCCn1nc(-c2ccccc2)sc1=N | 8 | 760
59 | N=C(N)CCCCCCCCCCCCC(=N)N | 13.6 | 0.3
60 | Nc1cccc[n+]1CCCCCCCCCCCC[n+]1ccccc1N | 13.5 | 2.3
